From PMC9821843, “Powerful Potential of Polyfluoroalkyl-Containing 4-Arylhydrazinylidenepyrazol-3-ones for Pharmaceuticals” (Molecules, 2022)
Values after ≈ are worked out from the molar mass of the structure shown. Read-outs that look alike come from different tables or passages of the source.

Tests used:
[1] = tested on: Candida albicans RCPF Y 401/NCTC 885/653; experiment: Antifungal susceptibility testing, C. albicans; details: NCTC885, read-out: MIC for fungi strains inhibition, C. albicans
Source text: (§2) The solvent was DMSO. […] In each test, a growth control and a sterility control were used.

[2] = Acute toxicity evaluation in mice (ip); details: CD-1, mouse, in vivo, 300 mg/kg
Procedure: The toxicity evaluation was performed on CD-1 mice. […] The tested compounds in 1% starch mucilage were injected intraperitoneally into three mice. Then, animals were observed during 14 days, the number of deaths was counted and % of viability calculated.

[3] = biological target: T1, human erythrocyte acetylcholinesterase (AChE, EC 3.1.1.7) (Homo sapiens, UniProt P22303); experiment: Inhibition of human erythrocyte acetylcholinesterase (Ellman assay); type: biochemical; details: read-out: Inhibition % at 20 µM, Human AChE
T1 construct: human erythrocyte acetylcholinesterase (AChE, EC 3.1.1.7); purchased Sigma-Aldrich (Saint Louis, MO, USA); host or cells: human erythrocytes
Source text: (§1) The following enzymes were purchased from Sigma-Aldrich (Saint Louis, MO, USA): porcine liver carboxylesterase (CES, EC 3.1.1.1), human erythrocyte acetylcholinesterase (AChE, EC 3.1.1.7) and equine serum butyrylcholinesterase (BChE, EC 3.1.1.8). Substrates for CES, AChE and BChE were 4-nitrophenyl acetate (4-NPA), acetylthiocholine iodide (ATCh) and butyrylthiocholine iodide (BTCh), respectively, and the colorimetric reagent for the AChE and BChE assays was 5,5’-dithio-bis-(2-nitrobenzoic acid) (DTNB) (Sigma-Aldrich). All the kinetic experiments were performed under standard conditions, according to the protocol of IPAC RAS for a reversible inhibitors study.
Reagent blanks consisted of reaction mixtures without enzyme to assess non-enzymatic hydrolysis of substrates.
Test compounds were dissolved in DMSO. Reaction mixtures contained a final DMSO concentration of 2% (v/v). […] Measurements were performed in a Bio-Rad Benchmark Plus microplate reader. Each experiment was performed in triplicate. Plots, linear regressions and values of IC50, were determined using Origin 6.1 for Windows, OriginLab (Northampton, MA, USA).

[4] = Oxygen radical absorbance capacity (ORAC-FL) assay; details: n.a. = inactive; i.t.s. = interferes with test system
Outline: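 Fluorescein oxidative degradation by the peroxyl radical generator AAPH is monitored in the presence of test compound, a HAT-based read-out. Activity is expressed relative to Trolox as reference antioxidant.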

[5] = tested on: Trichophyton rubrum RCPF F 1408; experiment: Antifungal susceptibility testing, T. rubrum; details: Trichophyton rubrum, RCPFF1408, read-out: MIC for fungi strains inhibition, T. rubrum
Source text: as §2

[6] = biological target: T2, equine serum butyrylcholinesterase (BChE, EC 3.1.1.8) (Equus caballus, UniProt P81908); experiment: Inhibition of equine serum butyrylcholinesterase (Ellman assay); type: biochemical; details: read-out: Inhibition % at 20 µM, Equine BChE
T2 construct: equine serum butyrylcholinesterase (BChE, EC 3.1.1.8); purchased Sigma-Aldrich (Saint Louis, MO, USA); host or cells: equine serum
Outline: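 Ellman colorimetric assay with 0.02 unit/mL BChE, 1 mM butyrylthiocholine iodide and 0.33 mM DTNB, 2% (v/v) DMSO final; substrate added after enzyme-compound mixing. Residual activity versus inhibitor-free control, blanks without enzyme; triplicates, IC50 by linear regression.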

[7] = biological target: porcine liver carboxylesterase (CES, EC 3.1.1.1) (Sus scrofa, UniProt Q29550); experiment: Inhibition of porcine liver carboxylesterase (4-NPA colorimetric assay); type: biochemical; details: mean ± SEM, n = 3; for inhibition at 20 µM: n.a. = inactive at 20 µM
Source text: as §1
The CES (porcine liver) activity was assessed colorimetrically in 0.1 M K/Na phosphate buffer pH 8.0, 25 °C, by measuring the absorbance of 4-nitrophenol at 405 nm. Final enzyme and substrate (4-NPA) concentrations were 0.02 unit/mL and 1 mM, respectively. Reagent blanks included all constituents except enzyme.
Test compounds were dissolved in DMSO. Reaction mixtures contained a final DMSO concentration of 2% (v/v). Enzyme inhibition was first assessed at a single concentration of 20 µM for each compound after a 5 min incubation at 25 °C in three separate experiments. […] Substrate was then added and residual enzyme activity relative to an inhibitor-free control was measured using a Bio-Rad Benchmark Plus microplate reader (Marnes-la-Coquette, France).
Measurements were performed in a Bio-Rad Benchmark Plus microplate reader. Each experiment was performed in triplicate. Plots, linear regressions and values of IC50, were determined using Origin 6.1 for Windows, OriginLab (Northampton, MA, USA). Results were calculated using GraphPad Prism version 6.05 for Windows, GraphPad Software (La Jolla, CA, USA) and presented as mean ± SEM.

[8] = tested on: Epidermophyton floccosum RCPF F 1659/17; experiment: Antifungal susceptibility testing, E. floccosum; details: Epidermophyton floccosum, RCPFF1659/17, read-out: MIC for fungi strains inhibition, E. floccosum
Source text: as §2

Sprague-Dawley (SD) rats = experiment: Hot plate test (analgesic activity); type: in vivo; details: ip; for change in vivo at 15 mg/kg: Rattus norvegicus
Outline: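 Test compounds were given i.p. as suspensions in 1% starch mucilage to SD rats (3 male, 3 female per group), vehicle as negative control. At 1 and 2 h post-dose, latency to nociceptive response (jumping, hind paw licking/shaking) on a 50 °C plate was recorded, 30 s cutoff.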

[9] = tested on: Microsporum canis RCPF F 1643/1585; experiment: Antifungal susceptibility testing, M. canis; details: Microsporum canis, RCPFF1643/1585, read-out: MIC for fungi strains inhibition, M. canis
Source text: as §2

[10] = tested on: Neisseria gonorrhoeae ATCC 49226/NCTC 12700; experiment: Antibacterial activity against Neisseria gonorrhoeae; type: cell-based; details: read-out: MIC against Neisseria gonorrhoeae
[11] = ABTS radical cation scavenging activity assay; details: mean ± SEM
Procedure: Radical scavenging activity of the compounds was evaluated by the ABTS radical cation (ABTS^•+) scavenging assay by the ability of the compounds to decolorize the ABTS^•+ solution [112] with some modifications. Trolox was used as a reference standard. Edaravone was used as the comparison compound. All tested compounds and standards were dissolved in DMSO. ABTS (2,2′-azinobis-(3-ethylbenzothiazoline-6-sulfonic acid)) was purchased from Tokyo Chemical Industry Co. Ltd. (Tokyo, Japan). Potassium persulfate (di-potassium peroxdisulfate), Trolox® (6-hydroxy-2,5,7,8-tetramethychroman-2-carboxylic acid), ascorbic acid, DMSO and HPLC-grade ethanol were obtained from Sigma-Aldrich Chemical Co. Aqueous solutions were prepared using deionized water.
The solution of ABTS^•+ was produced by mixing 7 mM ABTS aqueous solution with 2.45 mM potassium persulfate aqueous solution in equal quantities and allowing them to react for 12–16 h at room temperature in the dark. Radical scavenging capacity of the compounds was analyzed by mixing 10 μL of compound with 240 μL of ABTS^•+ working solution in ethanol (100 μM final concentration), and after 1 h of incubation at 30 °C the decrease in absorbance was measured spectrophotometrically at 734 nm using a Bio-Rad xMark microplate UV/VIS spectrophotometer (Bio-Rad, Hercules, CA, USA). The compounds were tested in the concentration range of 5 × 10^–7–4 × 10^–4 M. Ethanol blanks were run in each assay. Values were obtained from five replicates of each sample and three independent experiments.
Antioxidant activity was calculated as Trolox equivalent antioxidant capacity (TEAC values), consisting of the ratio between the slopes obtained from the linear correlation for concentrations of the tested compounds and Trolox with absorbance of ABTS radical. For the test compounds, which reduce ABTS^•+ absorbance by more than 60% at 100 µM, we also determined IC50 values as 50% reduction of the ABTS radical. The calculations were carried out using Origin 6.1 for Windows. Results were presented as mean ± SEM, calculated using GraphPad Prism version 6.05 for Windows, GraphPad Software.

[12] = hot plate test, rats, dose 15 mg/kg, 1 h, n.a. = inactive (p > 0.05), read-out: Latent Period Prolongation, % 1 h
[13] = hot plate test, rats, dose 15 mg/kg, 2 h, n.a. = inactive (p > 0.05), read-out: Latent Period Prolongation, % 2 h

Chain of porcine liver carboxylesterase (CES, EC 3.1.1.1) (Q29550 19-566): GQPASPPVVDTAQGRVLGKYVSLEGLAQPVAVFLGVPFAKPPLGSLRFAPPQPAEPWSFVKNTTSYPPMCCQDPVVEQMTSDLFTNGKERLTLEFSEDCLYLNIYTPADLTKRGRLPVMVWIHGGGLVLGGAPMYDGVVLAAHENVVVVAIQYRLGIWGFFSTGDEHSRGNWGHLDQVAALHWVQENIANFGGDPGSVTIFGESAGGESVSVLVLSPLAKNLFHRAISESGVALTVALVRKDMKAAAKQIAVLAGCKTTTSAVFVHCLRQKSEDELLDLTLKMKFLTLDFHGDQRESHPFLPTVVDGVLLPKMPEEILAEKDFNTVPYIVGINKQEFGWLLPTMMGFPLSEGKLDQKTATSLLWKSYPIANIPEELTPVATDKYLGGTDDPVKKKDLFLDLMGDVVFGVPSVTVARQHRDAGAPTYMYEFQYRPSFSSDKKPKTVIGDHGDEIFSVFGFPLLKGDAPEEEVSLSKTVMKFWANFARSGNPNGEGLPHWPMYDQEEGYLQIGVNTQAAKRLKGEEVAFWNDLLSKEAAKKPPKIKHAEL
T1 sequence (P22303 32-617 isoform P22303-2 limits assumed): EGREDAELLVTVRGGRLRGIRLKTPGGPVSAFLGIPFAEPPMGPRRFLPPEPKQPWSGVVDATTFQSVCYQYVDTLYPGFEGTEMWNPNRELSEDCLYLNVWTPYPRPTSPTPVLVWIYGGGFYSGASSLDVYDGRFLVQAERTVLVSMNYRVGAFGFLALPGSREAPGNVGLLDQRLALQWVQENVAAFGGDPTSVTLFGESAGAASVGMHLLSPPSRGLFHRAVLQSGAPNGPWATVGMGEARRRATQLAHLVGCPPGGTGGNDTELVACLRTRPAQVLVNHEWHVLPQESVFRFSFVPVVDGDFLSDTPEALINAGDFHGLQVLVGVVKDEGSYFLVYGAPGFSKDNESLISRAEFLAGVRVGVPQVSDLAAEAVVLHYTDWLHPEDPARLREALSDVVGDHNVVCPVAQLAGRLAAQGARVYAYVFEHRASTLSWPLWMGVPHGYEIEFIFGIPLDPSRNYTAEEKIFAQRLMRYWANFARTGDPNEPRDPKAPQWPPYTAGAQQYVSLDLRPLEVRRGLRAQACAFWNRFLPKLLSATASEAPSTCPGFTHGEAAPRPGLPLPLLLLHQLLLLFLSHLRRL
T2 sequence (P81908 whole entry): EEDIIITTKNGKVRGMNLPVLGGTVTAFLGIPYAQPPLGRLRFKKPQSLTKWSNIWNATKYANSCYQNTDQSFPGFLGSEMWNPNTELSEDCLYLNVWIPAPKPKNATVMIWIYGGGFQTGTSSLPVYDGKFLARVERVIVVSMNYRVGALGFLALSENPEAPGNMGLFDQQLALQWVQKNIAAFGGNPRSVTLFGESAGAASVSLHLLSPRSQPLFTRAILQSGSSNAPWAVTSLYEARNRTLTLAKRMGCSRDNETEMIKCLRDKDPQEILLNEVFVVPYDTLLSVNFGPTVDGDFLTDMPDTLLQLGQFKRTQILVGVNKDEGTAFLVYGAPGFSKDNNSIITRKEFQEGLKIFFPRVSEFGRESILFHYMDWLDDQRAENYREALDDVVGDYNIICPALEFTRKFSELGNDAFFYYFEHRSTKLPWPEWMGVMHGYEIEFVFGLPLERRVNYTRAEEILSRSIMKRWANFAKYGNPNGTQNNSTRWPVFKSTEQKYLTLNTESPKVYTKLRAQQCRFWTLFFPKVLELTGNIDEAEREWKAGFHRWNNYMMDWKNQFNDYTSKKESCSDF

Row | SMILES | MIC [1] | survival at 14 days [2] | inhibition at 20 µM [3] | ORAC-FL (TE, antioxidant activity in Trolox equivalents) [4] | MIC [5] | inhibition at 20 µM [6] | inhibition at 20 µM [7] | MIC [8] | change in vivo at 15 mg/kg (Sprague-Dawley (SD) rats; [12]) | change in vivo at 15 mg/kg (Sprague-Dawley (SD) rats; [13]) | MIC [9] | MIC [10] | analgesic activity in the hot plate test (Sprague-Dawley (SD) rats; SD rats, dose 15 mg/kg, 1 and 2 h) | IC50 [11] | ABTS•+-scavenging activity, TEAC (trolox equivalent antioxidant capacity) ([11]; n.a. = inactive) | change in vivo at 15 mg/kg (Sprague-Dawley (SD) rats; 1 h, read-out: Latent Period Prolongation, % 1 h) | change in vivo at 15 mg/kg (Sprague-Dawley (SD) rats; 2 h, read-out: Latent Period Prolongation, % 2 h) | IC50 ([7]; read-out: Inhibitory Activity IC50 ± SEM, Porcine CES)
1 | O=C1/C(=N\Nc2ccccc2Cl)C(C(F)(F)F)=NN1c1ccccc1 [5i, (4Z)-4-[2-(2-Chlorophenyl)hydrazinylidene]-2-phenyl-5-(trifluoromethyl)-2,4-dihydro-3H-pyrazol-3-one] | > 200 µg/mL | 100% | 6.3 ± 1% | i.t.s. | > 200 µg/mL | 6.4 ± 1.3% | 23.2 ± 1.8% | > 200 µg/mL | 42% | 61% | > 200 µg/mL | > 250 µg/mL |  |  |  |  |  | 
2 | O=C1/C(=N\Nc2ccc(Br)cc2)C(C(F)(F)F)=NN1c1ccccc1 [5k, (4Z)-4-[2-(4-Bromophenyl)hydrazinylidene]-2-phenyl-5-(trifluoromethyl)-2,4-dihydro-3H-pyrazol-3-one] | > 200 µg/mL | 100% | 5.4 ± 0.9% | i.t.s. | > 200 µg/mL | 6 ± 1.1% | 23.2 ± 2% | > 200 µg/mL | 89% | 76% | > 200 µg/mL | 31.2 µg/mL (≈ 75.9 µM) |  |  |  |  |  | 
3 | O=C1/C(=N\Nc2ccc(S(=O)(=O)O)cc2)C(C(F)(F)F)=NN1c1ccccc1 [5o, (4Z)-4-(2-[4-(Sulfo)phenyl]hydrazinylidene)-2-phenyl-5-(trifluoromethyl)-2,4-dihydro-3H-pyrazol-3-one] |  | 100% |  | i.t.s. |  | 7.4 ± 1.2% | 5.2 ± 1% |  | 109% | 54% |  | 62.5 µg/mL (≈ 152 µM) |  |  |  |  |  | 
4 | O=C1/C(=N\Nc2ccc(Cl)cc2Cl)C(C(F)(F)C(F)(F)F)=NN1c1ccccc1 [6f, (4Z)-4-[2-(2,4-Dichlorophenyl)hydrazinylidene]-5-(pentafluoroethyl)-2-phenyl-2,4-dihydro-3H-pyrazol-3-one] | > 200 µg/mL | 100% | 3.4 ± 0.7% |  | > 200 µg/mL | 4.3 ± 0.8% | 6.6 ± 0.9% | 200 µg/mL (≈ 443 µM) |  |  | > 200 µg/mL | > 250 µg/mL | inactive |  |  |  |  | 
5 | CS(=O)(=O)c1ccc(N/N=C2\C(=O)N(c3ccccc3)N=C2C(F)(F)C(F)(F)F)cc1 [6h, (4Z)-4-(2-[4-(Methylsulfonyl)phenyl]hydrazinylidene)-5-(pentafluoroethyl)-2-phenyl-2,4-dihydro-3H-pyrazol-3-one] | > 200 µg/mL | 100% | 4.1 ± 0.8% | i.t.s. | > 200 µg/mL | 5.2 ± 0.9% | 30.8 ± 2.7% | > 200 µg/mL | 80% | 98% | > 200 µg/mL | 250 µg/mL (≈ 543 µM) |  |  |  |  |  | 
6 | Cc1ccc(N/N=C2\C(=O)N(c3ccccc3)N=C2C(F)(F)C(F)(F)C(F)(F)C(F)(F)F)cc1 [8b, (4Z)-5-(Nonafluorobutyl)-4-[2-(4-methylphenyl)hydrazinylidene]-2-phenyl-2,4-dihydro-3H-pyrazol-3-one] |  | 100% | 9 ± 1.4% |  |  |  | 12.1 ± 1.9% |  |  |  |  | > 250 µg/mL |  | > 400000 nM | 0.05 ± 0.03 | 95.2% | 125% | 
7 | O=[N+]([O-])c1ccc(OP(=O)(O)Oc2ccc([N+](=O)[O-])cc2)cc1 [BNPP, reference compound] |  |  |  |  |  |  |  |  |  |  |  |  |  |  |  |  |  | 1800 ± 110 nM
